Reference: patent US7361758B2, “Crystals of triazaspiro[5.5]undecane derivative” (Ono Pharmaceutical Co., Ltd., priority 2002, dated 2008)

Legend:
[1] = target: interaction between chemokine and a chemokine receptor (Homo sapiens, UniProt P51681); assay: antagonistic activity against the interaction between chemokine and a chemokine receptor (method described in WO 01/40227); assay type: biochemical; details: compared with the amorphous substance produced by the method of WO 02/074770
rats = details: rat, in vivo, 2000 mg/kg
Description: Thus, the inventive compound is determined as sufficiently safe for medical use.

Chain of interaction between chemokine and a chemokine receptor (P51681 whole entry): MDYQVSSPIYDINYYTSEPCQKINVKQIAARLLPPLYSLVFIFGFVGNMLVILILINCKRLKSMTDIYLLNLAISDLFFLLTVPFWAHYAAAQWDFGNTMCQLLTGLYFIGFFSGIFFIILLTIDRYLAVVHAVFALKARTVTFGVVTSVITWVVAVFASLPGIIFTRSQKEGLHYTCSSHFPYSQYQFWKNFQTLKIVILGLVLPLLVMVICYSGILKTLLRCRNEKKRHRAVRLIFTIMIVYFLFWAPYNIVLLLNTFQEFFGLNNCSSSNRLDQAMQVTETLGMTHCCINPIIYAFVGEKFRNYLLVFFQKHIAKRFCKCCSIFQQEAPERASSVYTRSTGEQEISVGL

## CCCCN1C(=O)[C@@H]([C@H](O)C2CCCCC2)NC(=O)C12CCN(Cc1ccc(Oc3ccc(C(=O)O)cc3)cc1)CC2.Cl [Crystal A, (3R)-1-butyl-2,5-dioxo-3-[(1R)-1-hydroxy-1-cyclohexylmethyl]-9-[4-(4-carboxyphenyloxy)phenylmethyl]-1,4,9-triazaspiro[5.5]undecane Hydrochloride]
[1]
  antagonistic activity against the interaction between chemokine and a chemokine receptor: almost the same level as that of the amorphous substance
rats
  toxicity: never showed distinct toxicity
